According to patent US20260193293A1, “PEPTIDES CAPABLE OF INHIBITING PROTEIN-PROTEIN INTERACTIONS AT GABAB1A SUBUNIT AND USES THEREOF” (UNIVERSITY OF COPENHAGEN, priority 2022, published 2026):
Read-outs that look alike come from different tables or passages of the source. Blank lines part the entries; values can stand above or below the compound they belong to. Residues, ends and D or L forms follow the SMILES beside them.

Target: Sushi domains (SD1/2) protein
Assay: Fluorescence polarization (FP) competition assay with AJAP-1probe, calculated Ki
Type: binding
Method in brief: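 Ki values were derived from IC50s (sigmoidal fits, ≥ triplicate), with probe Kd obtained by saturation titration of SD1/2. Peptides displaced a 25 nM TAMRA-labelled probe; polarization read at 530/580 nm in 1% BSA-containing PBS, pH 7.4, room temperature.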

[1] = Table 12, deep mutational scanning validation variants of PIANPWT, read-out: Ki (nM) mean ± SEM
[2] = Table 14, CPPs tagged peptides, read-out: Ki (nM) mean ± SEM
[3] = Table 3, SPOT hit validation and previously reported peptides, read-out: Ki (nM) mean ± SEM
[4] = purified peptides, read-out: Ki

SMILES: CC[C@H](C)[C@H](NC(=O)[C@H](Cc1c[nH]c2ccccc12)NC(=O)[C@H](CC(=O)O)NC(=O)[C@H](CC(=O)O)NC(=O)[C@H](CC(=O)O)NC(=O)[C@H](CCC(=O)O)NC(=O)[C@H](CCCNC(=N)N)NC(=O)[C@H](CCCNC(=N)N)NC(=O)[C@H](CCCNC(=N)N)NC(=O)[C@H](CCCNC(=N)N)NC(C)=O)C(=O)N[C@@H](CC(=O)O)C(=O)N[C@@H](Cc1c[nH]c2ccccc12)C(=O)N[C@@H](Cc1ccc(O)cc1)C(=O)N[C@@H](CC(=O)O)C(=O)N[C@@H](CO)C(=O)N[C@@H](CC(=O)O)C(=O)N[C@@H](CC(=O)O)C(=O)N[C@@H](CC(=O)O)C(N)=O [Peptide 4R-16] (Ac-RRRREDDDWIDWYDSDDD-NH2)
Ki [2]: 20.6 ± 0.2 nM

SMILES: CC[C@H](C)[C@H](NC(=O)[C@H](Cc1c[nH]c2ccccc12)NC(=O)[C@H](CC(=O)O)NC(=O)[C@H](CC(=O)O)NC(=O)[C@H](CC(=O)O)NC(=O)[C@H](CCC(=O)O)NC(=O)[C@H](CCCNC(=N)N)NC(=O)[C@H](CCCNC(=N)N)NC(=O)[C@H](CCCNC(=N)N)NC(=O)[C@H](CCCNC(=N)N)NC(C)=O)C(=O)N[C@@H](CC(=O)O)C(=O)N[C@@H](Cc1c[nH]c2ccccc12)C(=O)NCC(=O)N1CCC[C@H]1C(=O)N[C@H](C(=O)N[C@@H](CO)C(=O)N[C@@H](CC(=O)O)C(=O)N[C@@H](CC(=O)O)C(=O)N[C@@H](CC(=O)O)C(N)=O)[C@@H](C)O [Peptide 4R-17] (Ac-RRRREDDDWIDWGPTSDDD-NH2)
Ki [2]: 15 ± 1 nM

SMILES: CC(=O)N[C@@H](CC(=O)O)C(=O)N[C@@H](CO)C(=O)N[C@@H](C)C(=O)N[C@@H](CC(=O)O)C(=O)N[C@@H](C)C(=O)N[C@@H](CCC(=O)O)C(=O)N[C@@H](CCC(=O)O)C(=O)N[C@@H](CC(=O)O)C(=O)N[C@@H](CC(=O)O)C(=O)N[C@@H](CO)C(=O)N[C@@H](CC(=O)O)C(=O)N[C@H](C(=O)N[C@@H](Cc1c[nH]c2ccccc12)C(=O)N[C@@H](Cc1c[nH]c2ccccc12)C(=O)NCC(N)=O)C(C)C [Peptide 11] (Ac-DSADAEEDDSDVWWG-NH2)
Ki (AJAP-1probe, read-out: Ki): 5000 nM
Ki [3]: 5030 ± 171 nM

SMILES: CC(=O)N[C@@H](CO)C(=O)N[C@@H](C)C(=O)N[C@@H](CC(=O)O)C(=O)N[C@@H](C)C(=O)N[C@@H](CCC(=O)O)C(=O)N[C@@H](CCC(=O)O)C(=O)N[C@@H](CC(=O)O)C(=O)N[C@@H](CC(=O)O)C(=O)N[C@@H](CO)C(=O)N[C@@H](CC(=O)O)C(=O)N[C@H](C(=O)N[C@@H](Cc1c[nH]c2ccccc12)C(=O)N[C@@H](Cc1c[nH]c2ccccc12)C(=O)NCC(=O)NCC(N)=O)C(C)C [Peptide 12] (Ac-SADAEEDDSDVWWGG-NH2)
Ki (AJAP-1probe, read-out: Ki): 1300 nM
Ki [3]: 1300 ± 28 nM

SMILES: CC(=O)N[C@@H](CCC(=O)O)C(=O)N[C@@H](CC(=O)O)C(=O)N[C@@H](CC(=O)O)C(=O)N[C@@H](CO)C(=O)N[C@@H](CC(=O)O)C(=O)N[C@H](C(=O)N[C@@H](Cc1c[nH]c2ccccc12)C(=O)N[C@@H](Cc1c[nH]c2ccccc12)C(=O)NCC(=O)NCC(=O)N[C@@H](C)C(=O)N[C@@H](CC(=O)O)C(=O)N[C@H](C(=O)N[C@@H](CC(=O)O)C(=O)N[C@@H](Cc1ccc(O)cc1)C(N)=O)[C@@H](C)O)C(C)C [Peptide 13] (Ac-EDDSDVWWGGADTDY-NH2)
Ki [4]: 581 nM

SMILES: CC[C@H](C)[C@H](NC(=O)[C@H](Cc1c[nH]c2ccccc12)NC(=O)[C@H](CC(=O)O)NC(=O)[C@H](CC(=O)O)NC(=O)[C@H](CC(=O)O)NC(=O)[C@H](CCC(=O)O)NC(C)=O)C(=O)N[C@@H](CC(=O)O)C(=O)N[C@@H](Cc1c[nH]c2ccccc12)C(=O)N[C@@H](Cc1ccc(O)cc1)C(=O)N[C@@H](CC(=O)O)C(=O)N[C@@H](CO)C(=O)N[C@@H](CC(=O)O)C(=O)N[C@@H](CC(=O)O)C(=O)N[C@@H](CC(=O)O)C(=O)NCC(=O)NCC(=O)NCC(=O)NCC(=O)N[C@@H](CO)C(=O)N[C@@H](CCCNC(=N)N)C(=O)N[C@@H](CCCNC(=N)N)C(=O)N[C@@H](CCCNC(=N)N)C(=O)N[C@@H](CCCNC(=N)N)C(=O)N[C@@H](CCCNC(=N)N)C(=O)N[C@@H](CCCNC(=N)N)C(=O)N[C@@H](CCCNC(=N)N)C(=O)N[C@@H](CCCNC(=N)N)C(N)=O [Peptide 16-FL-R8] (Ac-EDDDWIDWYDSDDDGGGGSRRRRRRRR-NH2)
Ki (CPP tagged peptides overview, SD1/2 binding affinity, mean ± SEM, n ≥ 3, read-out: Ki): 118 ± 3 nM
Ki [2]: 118 ± 3 nM

More lines, now with the values ahead:

Ki [1]: 339 ± 8 nM
SMILES: CC[C@H](C)[C@H](NC(=O)[C@H](Cc1c[nH]c2ccccc12)NC(=O)[C@@H]1CCCN1C(C)=O)C(=O)N[C@H](C(=O)N[C@H](C(=O)N[C@@H](Cc1c[nH]c2ccccc12)C(=O)NCC(=O)N1CCC[C@H]1C(=O)N[C@H](C(=O)N[C@H](C(=O)N[C@@H](CO)C(=O)N[C@@H](CCCNC(=N)N)C(=O)N[C@@H](CCC(=O)O)C(=O)N[C@@H](CC(=O)O)C(N)=O)C(C)C)[C@@H](C)O)C(C)C)[C@@H](C)CC [PWIIVWGPTVSRED]

Ki [1]: 302 ± 4 nM
SMILES: CC[C@H](C)[C@H](NC(=O)[C@@H](NC(=O)[C@H](Cc1c[nH]c2ccccc12)NC(=O)[C@@H]1CCCN1C(C)=O)C(C)C)C(=O)N[C@H](C(=O)N[C@@H](Cc1c[nH]c2ccccc12)C(=O)NCC(=O)N1CCC[C@H]1C(=O)N[C@H](C(=O)N[C@H](C(=O)N[C@@H](CO)C(=O)N[C@@H](CCCNC(=N)N)C(=O)N[C@@H](CCC(=O)O)C(=O)N[C@@H](CC(=O)O)C(N)=O)C(C)C)[C@@H](C)O)C(C)C [PWVIVWGPTVSRED] (Ac-PWVIVWGPTVSRED-NH2)

Ki [1]: 336 ± 2 nM
SMILES: CC[C@H](C)[C@H](NC(=O)[C@H](Cc1ccc(O)cc1)NC(=O)[C@H](Cc1c[nH]c2ccccc12)NC(=O)[C@@H]1CCCN1C(C)=O)C(=O)N[C@H](C(=O)N[C@@H](Cc1c[nH]c2ccccc12)C(=O)NCC(=O)N1CCC[C@H]1C(=O)N[C@H](C(=O)N[C@H](C(=O)N[C@@H](CO)C(=O)N[C@@H](CCCNC(=N)N)C(=O)N[C@@H](CCC(=O)O)C(=O)N[C@@H](CC(=O)O)C(N)=O)C(C)C)[C@@H](C)O)C(C)C [PWYIVWGPTVSRED] (Ac-PWYIVWGPTVSRED-NH2)

Ki [4]: 465 nM
SMILES: CC[C@H](C)[C@H](NC(=O)[C@H](C)NC(=O)[C@H](Cc1c[nH]c2ccccc12)NC(=O)[C@@H]1CCCN1C(C)=O)C(=O)N[C@H](C(=O)N[C@@H](Cc1c[nH]c2ccccc12)C(=O)NCC(=O)N1CCC[C@H]1C(=O)N[C@H](C(=O)N[C@H](C(=O)N[C@@H](CO)C(=O)N[C@@H](CCCNC(=N)N)C(=O)N[C@@H](CCC(=O)O)C(=O)N[C@@H](CC(=O)O)C(=O)NCC(N)=O)C(C)C)[C@@H](C)O)C(C)C [Peptide 14] (Ac-PWAIVWGPTVSREDG-NH2)

Ki (Table 5, elongation and truncation scan of AJAP-1 binding epitope, read-out: Ki (nM) mean ± SEM): 26 ± 0.3 nM
Ki [4]: 23 nM
SMILES: CC[C@H](C)[C@H](NC(=O)[C@H](Cc1ccccc1)NC(=O)[C@H](CCC(=O)O)NC(=O)[C@@H](NC(=O)[C@H](CCC(=O)O)NC(=O)[C@@H](NC(C)=O)[C@@H](C)O)[C@@H](C)O)C(=O)N[C@@H](C)C(=O)N[C@@H](Cc1c[nH]c2ccccc12)C(=O)NCC(=O)N1CCC[C@H]1C(=O)N[C@H](C(=O)NCC(=O)N[C@@H](CC(=O)O)C(=O)N[C@@H](CCC(=O)O)C(=O)N[C@@H](CC(=O)O)C(N)=O)[C@@H](C)O [Peptide 15, Ac-TETEFIAWGPTGDED-NH2] (Ac-TETEFIAWGPTGDED-NH2)
